Measured values from patent EP4122499A1, “FIBROBLAST ACTIVATION PROTEIN INHIBITORS AND USE THEREOF” (3B Pharmaceuticals GmbH, priority 2021, dated 2023).

What was measured:
[1] = molecular target: T1, FAP-expressing human WI-38 fibroblasts (Homo sapiens, UniProt Q12884); assay: Competitive FACS binding assay (displacement of Cy5-labeled FAP inhibitor 3BP-2935); settings: 3 nM Cy5-labeled 3BP-2935, 4°C, 1 hour
T1 construct: FAP-expressing human WI-38 fibroblasts (ECACC 90020107) were cultured in EMEM; host or cells: WI-38 human fibroblasts
T1 sequence (Q12884 1-760): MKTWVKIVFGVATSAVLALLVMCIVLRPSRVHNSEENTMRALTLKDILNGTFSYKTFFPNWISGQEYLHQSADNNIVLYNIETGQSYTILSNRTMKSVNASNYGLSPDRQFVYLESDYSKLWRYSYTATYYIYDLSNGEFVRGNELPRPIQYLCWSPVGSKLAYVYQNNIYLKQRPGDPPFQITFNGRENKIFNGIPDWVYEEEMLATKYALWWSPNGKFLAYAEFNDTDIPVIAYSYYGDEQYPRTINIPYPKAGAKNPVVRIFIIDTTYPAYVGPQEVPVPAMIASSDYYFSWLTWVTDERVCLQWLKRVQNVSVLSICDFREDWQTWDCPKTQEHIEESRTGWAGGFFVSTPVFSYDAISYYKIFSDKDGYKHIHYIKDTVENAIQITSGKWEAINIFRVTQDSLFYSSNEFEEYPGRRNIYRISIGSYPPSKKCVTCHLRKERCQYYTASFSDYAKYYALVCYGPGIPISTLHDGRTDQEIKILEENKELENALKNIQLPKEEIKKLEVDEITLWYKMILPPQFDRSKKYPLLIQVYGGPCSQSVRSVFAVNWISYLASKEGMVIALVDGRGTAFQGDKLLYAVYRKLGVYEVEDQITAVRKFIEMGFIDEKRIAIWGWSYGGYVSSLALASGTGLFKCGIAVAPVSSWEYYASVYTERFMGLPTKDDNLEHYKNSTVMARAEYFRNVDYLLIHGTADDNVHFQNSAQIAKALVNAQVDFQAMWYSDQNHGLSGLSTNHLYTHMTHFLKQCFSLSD

[2] = molecular target: T2, Recombinant human DPP4 (Homo sapiens, UniProt P27487); assay: DPP4 protease activity assay; assay type: biochemical; settings: 20 µM GP-AMC substrate; for IC50: read-out: pIC50 (DPP4) (converted)
T2 construct: purchased R&D systems 9168-SE
Experimental: (§1) The PREP activity assay was performed using the FACS buffer (PBS including 1% FBS, Sigma-Aldrich, Cat# D8537). […] The DPP4 activity assay was performed in DPP assay buffer (25 mM Tris, pH 8.0).
(§2) Four parameter logistic (4PL) curve fitting and pIC50 calculations were performed using ActivityBase software.

[3] = molecular target: T3, recombinant human PREP (Homo sapiens, UniProt P48147); assay: PREP protease activity assay; assay type: biochemical; settings: 50 µM Z-GP-AMC substrate
T3 construct: purchased R&D systems 4308-SE
T3 sequence (P48147 1-710): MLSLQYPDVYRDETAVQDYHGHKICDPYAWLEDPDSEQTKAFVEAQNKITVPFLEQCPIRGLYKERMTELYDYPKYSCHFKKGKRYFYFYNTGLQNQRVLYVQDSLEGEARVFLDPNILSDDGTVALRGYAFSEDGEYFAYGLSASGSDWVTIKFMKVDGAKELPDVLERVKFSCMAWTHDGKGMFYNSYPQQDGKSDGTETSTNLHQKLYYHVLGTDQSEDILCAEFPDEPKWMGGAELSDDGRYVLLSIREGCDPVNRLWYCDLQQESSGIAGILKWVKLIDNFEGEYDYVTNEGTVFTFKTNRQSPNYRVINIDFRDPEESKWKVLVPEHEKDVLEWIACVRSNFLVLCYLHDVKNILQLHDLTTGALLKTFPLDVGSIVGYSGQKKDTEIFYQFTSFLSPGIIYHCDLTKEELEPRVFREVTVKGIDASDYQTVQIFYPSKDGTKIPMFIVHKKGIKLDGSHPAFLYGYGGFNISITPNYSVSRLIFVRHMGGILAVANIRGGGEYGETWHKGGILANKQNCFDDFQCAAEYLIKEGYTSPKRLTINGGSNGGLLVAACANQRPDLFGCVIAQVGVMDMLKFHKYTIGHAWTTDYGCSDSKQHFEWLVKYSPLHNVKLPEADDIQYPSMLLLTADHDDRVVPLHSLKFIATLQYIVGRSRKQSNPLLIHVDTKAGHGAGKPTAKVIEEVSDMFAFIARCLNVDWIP
Experimental: as §1, §2

[4] = molecular target: T4, Human recombinant FAP (Homo sapiens, UniProt Q12884); assay: FRET-based FAP protease activity assay (human); assay type: biochemical; parameters: purchased R&D systems 3715-SE; settings: FRET-peptide substrate, 37°C; for IC50: read-out: pIC50 (Activity) (converted)
T4 sequence (Q12884 1-760): T1 sequence (Q12884 1-760)
Experimental: In order to determine the inhibitory activity a FRET-based FAP protease activity assay was established.
25 µL of a 30 µM substrate solution, diluted in assay buffer, was added. […] Four parameter logistic (4PL) curve fitting and pIC50 calculations were performed using ActivityBase software (IDBS).

T2 sequence (P27487 whole entry): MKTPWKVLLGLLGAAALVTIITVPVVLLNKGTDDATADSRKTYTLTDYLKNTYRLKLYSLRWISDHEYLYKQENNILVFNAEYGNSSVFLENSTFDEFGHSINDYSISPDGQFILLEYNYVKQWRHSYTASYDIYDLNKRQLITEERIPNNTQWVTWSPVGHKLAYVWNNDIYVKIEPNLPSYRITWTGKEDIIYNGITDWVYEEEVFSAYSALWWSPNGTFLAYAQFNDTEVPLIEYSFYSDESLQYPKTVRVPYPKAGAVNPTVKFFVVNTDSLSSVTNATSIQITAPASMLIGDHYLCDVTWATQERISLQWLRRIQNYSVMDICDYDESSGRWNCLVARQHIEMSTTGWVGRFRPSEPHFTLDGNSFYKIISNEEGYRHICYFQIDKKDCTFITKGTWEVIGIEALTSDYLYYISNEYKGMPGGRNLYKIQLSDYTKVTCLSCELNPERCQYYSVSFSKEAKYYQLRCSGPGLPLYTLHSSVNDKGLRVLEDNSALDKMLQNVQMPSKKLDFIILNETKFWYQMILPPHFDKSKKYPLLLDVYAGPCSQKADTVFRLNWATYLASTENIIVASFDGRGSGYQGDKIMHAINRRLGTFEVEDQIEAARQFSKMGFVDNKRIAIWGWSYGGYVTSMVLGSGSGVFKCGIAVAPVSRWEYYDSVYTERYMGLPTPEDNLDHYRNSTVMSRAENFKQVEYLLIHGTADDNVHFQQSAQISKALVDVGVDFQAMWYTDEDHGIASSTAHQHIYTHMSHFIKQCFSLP

| pIC50 (FACS) [1] | pIC50 (DPP4) [2] | pIC50 (PREP) [3] | pIC50 (Activity) [4] | IC50 [1] | IC50 [2] | IC50 [3] | IC50 [4] | Structure (SMILES) |
| --- | --- | --- | --- | --- | --- | --- | --- | --- |
| 8.6 | <6 | 8.6 | 8.9 |  |  |  |  | O=C(O)CN1CCN(CC(=O)O)CCN(CC(=O)N2CCN(CCCOc3ccc4nccc(C(=O)NCC(=O)N5CCC[C@H]5C(=O)c5nc6ccccc6o5)c4c3)CC2)CCN(CC(=O)O)CC1 [drawing 357] |
|  |  |  |  | 63.1 nM | > 1000 nM | 15.8 nM | 39.8 nM | O=C(NCC(=O)N1CCC[C@H]1C(=O)c1nc2ccccc2s1)c1ccnc2ccccc12 |
| 8.5 | <6 | 7.8 | 8.6 |  |  |  |  | O=C(O)CN1CCN(CC(=O)O)CCN(CC(=O)N2CCN(CCNC(=O)c3cccc(-c4ccc5nccc(C(=O)NCC(=O)N6CCC[C@H]6C(=O)c6nc7ccccc7o6)c5c4)c3)CC2)CCN(CC(=O)O)CC1 [drawing 353] |
| 7.6 | <6 | 7.3 | 8.5 |  |  |  |  | O=C(O)CN1CCN(CC(=O)O)CCN(CC(=O)N2CCN(CCNC(=O)c3ccc(-c4ccc5nccc(C(=O)NCC(=O)N6C[C@@H](F)C[C@H]6C(=O)c6nc7ccccc7o6)c5c4)cc3)CC2)CCN(CC(=O)O)CC1 [drawing 360] |
| 7.9 | <6 | 8.2 | 8.4 |  |  |  |  | O=C(O)CN1CCN(CC(=O)O)CCN(CC(=O)N2CCN(CCNC(=O)c3ccc(-c4ccc5nccc(C(=O)NCC(=O)N6CCC[C@H]6C(=O)c6nc7ccccc7o6)c5c4)cc3)CC2)CCN(CC(=O)O)CC1 [drawing 354] |
|  |  |  |  | 100 nM | > 1000 nM | 25.1 nM | 50.1 nM | O=C(NCC(=O)N1CCC[C@H]1C(=O)c1nccs1)c1ccnc2ccccc12 |
|  |  |  |  | 3.98 nM | > 1000 nM | > 1000 nM | 1 nM | CS(=O)(=O)c1cccc(-c2ccc3nccc(C(=O)NCC(=O)N4CCC[C@H]4C#N)c3c2)c1 |
|  |  |  |  | 15.8 nM | > 1000 nM | 1.26 nM | 3.98 nM | CC(C)(C)c1nnc(C(=O)[C@@H]2CCCN2C(=O)CNC(=O)c2ccnc3ccccc23)o1 |
|  |  |  |  | 6.31 nM | > 1000 nM | 1 nM | 1.58 nM | O=C(NCC(=O)N1CCC[C@H]1C(=O)c1nc2ccccc2o1)c1ccnc2ccccc12 |
| 8.5 | <6 |  | 9 |  |  |  |  | N#C[C@@H]1CC(F)(F)CN1C(=O)CNC(=O)c1cc[n+]([O-])c2ccc(OCCCN3CCN(C(=O)CN4CCN(CC(=O)O)CCN(CC(=O)O)CCN(CC(=O)O)CC4)CC3)cc12 |
| 7.9 | <6 | 6.7 | 8.6 |  |  |  |  | O=C(O)CN1CCN(CC(=O)O)CCN(CC(=O)N2CCN(CCCOc3ccc4nccc(C(=O)NCC(=O)N5CC(F)(F)C[C@H]5C(=O)c5nc6ccccc6o5)c4c3)CC2)CCN(CC(=O)O)CC1 |
| 8.6 | <6 | 8.2 | 8.8 |  |  |  |  | O=C(O)CN1CCN(CC(=O)O)CCN(CC(=O)NCCCNC(=O)c2ccc(-c3ccc4nccc(C(=O)NCC(=O)N5CCC[C@H]5C(=O)c5nc6ccccc6o5)c4c3)cc2)CCN(CC(=O)O)CC1 |
| 8.4 | <6 | 8.4 | 8.7 |  |  |  |  | O=C(O)CN1CCN(CC(=O)O)CCN(CC(=O)N2CCN(CCNC(=O)c3cccc(-c4ccc5c(C(=O)NCC(=O)N6CCC[C@H]6C(=O)c6nc7ccccc7o6)ccnc5c4)c3)CC2)CCN(CC(=O)O)CC1 [drawing 352] |
| 7.6 | <6 | 7.9 | 8.4 |  |  |  |  | O=C(O)CN1CCN(CC(=O)O)CCN(CC(=O)N2CCN(CCNC(=O)c3ccc(-c4ccc5nccc(C(=O)NCC(=O)N6CCC[C@H]6C(=O)c6nc7ccccc7o6)c5c4)cn3)CC2)CCN(CC(=O)O)CC1 [drawing 361] |
|  |  |  |  | 6.31 nM | > 1000 nM | > 1000 nM | 2 nM | CS(=O)(=O)c1cccc(-c2ccc3c(C(=O)NCC(=O)N4CCC[C@H]4C#N)ccnc3c2)c1 |

| Structure (SMILES) | pIC50 (FACS) [1] | pIC50 (DPP4) [2] | pIC50 (PREP) [3] | pIC50 (Activity) [4] | IC50 [1] | IC50 [2] | IC50 [3] | IC50 [4] |
| --- | --- | --- | --- | --- | --- | --- | --- | --- |
| O=C(O)CN1CCN(CC(=O)O)CCN(CC(=O)N2CCN(CCCOc3ccc4nccc(C(=O)NCC(=O)N5C[C@@H](F)C[C@H]5C(=O)c5nc6ccccc6o5)c4c3)CC2)CCN(CC(=O)O)CC1 [drawing 358] | 8.6 | <6 | 7.8 | 9 |  |  |  |  |
| N#C[C@@H]1CC(F)(F)CN1C(=O)CNC(=O)c1ccnc2ccc(-c3ccc(C(=O)NCCCNC(=O)CN4CCN(CC(=O)O)CCN(CC(=O)O)CCN(CC(=O)O)CC4)cc3)cc12 | 8.9 | <6 |  | 9.2 |  |  |  |  |
| N#C[C@@H]1CC(F)(F)CN1C(=O)CNC(=O)c1ccnc2ccc(-c3ccc(S(=O)(=O)CCCNC(=O)CN4CCN(CC(=O)O)CCN(CC(=O)O)CCN(CC(=O)O)CC4)cc3)cc12 | 9.2 | 6.7 | <6 | 9.1 |  |  |  |  |
| N#C[C@@H]1CC(F)(F)CN1C(=O)CNC(=O)c1ccnc2ccc(-c3ccc(C(=O)NCCCNC(=O)CN4CCN(CC(=O)O)CCN(CC(=O)O)CCN(CC(=O)O)CC4)nc3)cc12 | 8.8 | <6 | <6 | 9.1 |  |  |  |  |
| CS(=O)(=O)c1ccc(-c2ccc3c(C(=O)NCC(=O)N4CCC[C@H]4C#N)ccnc3c2)cc1 [drawing 290] |  |  |  |  | 6.31 nM | > 1000 nM | 794 nM | 1.58 nM |
| N#C[C@@H]1CC(F)(F)CN1C(=O)CNC(=O)c1ccnc2ccc(-c3ccc(C(=O)NCCN4CCN(C(=O)CN5CCN(CC(=O)O)CCN(CC(=O)O)CCN(CC(=O)O)CC5)CC4)cc3)cc12 | 8.7 | <6 | <6 | 9.1 |  |  |  |  |
| O=C(NCC(=O)N1CCC[C@H]1C(=O)c1ncco1)c1ccnc2ccccc12 [drawing 297] |  |  |  |  | 12.6 nM | > 1000 nM | 0.631 nM | 6.31 nM |
| O=C(O)CN1CCN(CC(=O)O)CCN(CC(=O)NCCCNC(=O)c2ccc(-c3ccc4nccc(C(=O)NCC(=O)N5CCC[C@H]5B(O)O)c4c3)cc2)CCN(CC(=O)O)CC1 | 8.9 | <6 | 8.2 | 8.8 |  |  |  |  |
| O=C(O)CN1CCN(CC(=O)O)CCN(CC(=O)N2CCN(CCNC(=O)c3ccc(-c4ccc5c(C(=O)NCC(=O)N6CCC[C@H]6C(=O)c6nc7ccccc7o6)ccnc5c4)cc3)CC2)CCN(CC(=O)O)CC1 [drawing 355] | 8.4 | <6 | 8.7 | 8.7 |  |  |  |  |
| N#C[C@@H]1CCCN1C(=O)CNC(=O)c1ccnc2ccc(-c3ccc(C(=O)NCCCNC(=O)CN4CCN(CC(=O)O)CCN(CC(=O)O)CCN(CC(=O)O)CC4)cc3)cc12 | 8.7 | <6 |  | 9 |  |  |  |  |
